The values below are quoted from earlier work in publication PMC2916017 (Journal of biomedical optics, 2009).

Data set [1] concerns the target T1, caspase-3 (Homo sapiens, UniProt P42574).
T1 sequence (P42574 29-175 limits assumed): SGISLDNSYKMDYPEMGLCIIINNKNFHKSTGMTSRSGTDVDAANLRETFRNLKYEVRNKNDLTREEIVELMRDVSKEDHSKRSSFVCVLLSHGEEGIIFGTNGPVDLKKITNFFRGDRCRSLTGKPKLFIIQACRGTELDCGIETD
T1 sequence (P42574 176-277 limits assumed): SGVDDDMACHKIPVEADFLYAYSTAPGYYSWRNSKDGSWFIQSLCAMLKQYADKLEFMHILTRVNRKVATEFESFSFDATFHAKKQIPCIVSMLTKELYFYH
Particulars: standard substrate, comparison value; no reference given.

Data set [2] deals with αvβ3–positive tumor. Particulars: previous work; specific activities 200–500 Ci/mmol.

The Km is the concentration of substrate that gives half-maximal velocity. As usually defined, the kcat is the maximal rate divided by the concentration of active sites. Consider Ac-DEVD-AMC, for which, in data set [1], the Km was 9.7 µM and the kcat is 0.75 s⁻¹.

Turning to Ac-DEVD-pNA, in data set [1], the Km is 11 µM.

Turning to ^64Cu-DOTA-c(RGDyK) (head to tail), the “tumor visualization by small animal PET” value in data set [2] was “receptor specific tumor accumulation allowed for αvβ3–positive tumor visualization by small animal PET”.
